Tested on: peptide-specific IgG in sera of cancer patients and healthy donors
Assay: Measurement of anti-peptide IgG in plasma by LUMINEX multiplexed flow cytometric assay
Assay type: binding, human
Outline: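 Plasma diluted 1/100 incubated with peptide-coupled colour-coded beads 2 h at RT, then biotinylated goat anti-human IgG (γ-chain) 1 h and streptavidin-PE 30 min; fluorescence read by multiplexed flow cytometry, >100 counted significant. Specificity checked by three rounds of absorption on corresponding versus irrelevant SCCA peptide.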

With “KFMFDLFQQF (SCCA 10-19 peptide) [SCCA-derived peptide, position 10-19]” the “Total: healthy donors with significant peptide-reactive IgG / donors tested” value (10 healthy donors, significant when fluorescence intensity exceeded 100 at 1/100 dilution) was 1/10, the “Total: cancer patients with significant peptide-reactive IgG / patients tested” value (71 cancer patients, significant when fluorescence intensity exceeded 100 at 1/100 dilution) was 12/71 and the Fluorescence intesity (serum of Breast Ca. patient #36, 1:100 dilution) was 66. For the same sequence, the Fluorescence intesity (serum of Breast Ca. patient #37, 1:100 dilution) was 0, the Fluorescence intesity (serum of Breast Ca. patient #38, 1:100 dilution) was 27 and the Fluorescence intesity (serum of Breast Ca. patient #39, 1:100 dilution) was 38. The Fluorescence intesity (serum of Breast Ca. patient #40, 1:100 dilution) was 0, the Fluorescence intesity (serum of Breast Ca. patient #41, 1:100 dilution) was 201 and the Fluorescence intesity (serum of Breast Ca. patient #42, 1:100 dilution) was 0. It also gave a Fluorescence intesity (serum of Breast Ca. patient #43, 1:100 dilution) of 44, a Fluorescence intesity (serum of Breast Ca. patient #44, 1:100 dilution) of 18 and a Fluorescence intesity (serum of Breast Ca. patient #45, 1:100 dilution) of 55. The Fluorescence intesity (serum of Colon Ca. patient #66, 1:100 dilution) was 5, the Fluorescence intesity (serum of Colon Ca. patient #67, 1:100 dilution) was 79 and the Fluorescence intesity (serum of Colon Ca. patient #68, 1:100 dilution) was 0. It also gave a Fluorescence intesity (serum of Colon Ca. patient #69, 1:100 dilution) of 2, a Fluorescence intesity (serum of Colon Ca. patient #70, 1:100 dilution) of 17 and a Fluorescence intesity (serum of Colon Ca. patient #71, 1:100 dilution) of 6. The Fluorescence intesity (serum of Gastric Ca. patient #56, 1:100 dilution) was 38, the Fluorescence intesity (serum of Gastric Ca. patient #57, 1:100 dilution) was 11 and the Fluorescence intesity (serum of Gastric Ca. patient #58, 1:100 dilution) was 0. For the same sequence, the Fluorescence intesity (serum of Gastric Ca. patient #59, 1:100 dilution) was 177, the Fluorescence intesity (serum of Gastric Ca. patient #60, 1:100 dilution) was 4 and the Fluorescence intesity (serum of Gastric Ca. patient #61, 1:100 dilution) was 81. For the same sequence, the Fluorescence intesity (serum of Gastric Ca. patient #62, 1:100 dilution) was 0, the Fluorescence intesity (serum of Gastric Ca. patient #63, 1:100 dilution) was 0 and the Fluorescence intesity (serum of Gastric Ca. patient #64, 1:100 dilution) was 9. It also gave a Fluorescence intesity (serum of Gastric Ca. patient #65, 1:100 dilution) of 0, a Fluorescence intesity (serum of Healthy Donor #1, 1:100 dilution) of 0 and a Fluorescence intesity (serum of Healthy Donor #2, 1:100 dilution) of 68. The Fluorescence intesity (serum of Healthy Donor #3, 1:100 dilution) was 0, the Fluorescence intesity (serum of Healthy Donor #4, 1:100 dilution) was 0 and the Fluorescence intesity (serum of Healthy Donor #5, 1:100 dilution) was 8. The Fluorescence intesity (serum of Healthy Donor #6, 1:100 dilution) was 0, the Fluorescence intesity (serum of Healthy Donor #7, 1:100 dilution) was 0 and the Fluorescence intesity (serum of Healthy Donor #8, 1:100 dilution) was 345. The Fluorescence intesity (serum of Healthy Donor #9, 1:100 dilution) was 34, the Fluorescence intesity (serum of Healthy Donor #10, 1:100 dilution) was 0 and the Fluorescence intesity (serum of Pancreas Ca. patient #46, 1:100 dilution) was 0. The Fluorescence intesity (serum of Pancreas Ca. patient #47, 1:100 dilution) was 12, the Fluorescence intesity (serum of Pancreas Ca. patient #48, 1:100 dilution) was 206 and the Fluorescence intesity (serum of Pancreas Ca. patient #49, 1:100 dilution) was 0. The Fluorescence intesity (serum of Pancreas Ca. patient #50, 1:100 dilution) was 311, the Fluorescence intesity (serum of Pancreas Ca. patient #51, 1:100 dilution) was 0 and the Fluorescence intesity (serum of Pancreas Ca. patient #52, 1:100 dilution) was 172. The Fluorescence intesity (serum of Pancreas Ca. patient #53, 1:100 dilution) was 0, the Fluorescence intesity (serum of Pancreas Ca. patient #54, 1:100 dilution) was 11 and the Fluorescence intesity (serum of Pancreas Ca. patient #55, 1:100 dilution) was 0. For the same sequence, the Fluorescence intesity (serum of Uterine cervical Ca. patient #1, 1:100 dilution) was 25, the Fluorescence intesity (serum of Uterine cervical Ca. patient #2, 1:100 dilution) was 21 and the Fluorescence intesity (serum of Uterine cervical Ca. patient #3, 1:100 dilution) was 11. The Fluorescence intesity (serum of Uterine cervical Ca. patient #4, 1:100 dilution) was 5, the Fluorescence intesity (serum of Uterine cervical Ca. patient #5, 1:100 dilution) was 14 and the Fluorescence intesity (serum of Uterine cervical Ca. patient #6, 1:100 dilution) was 786. For the same sequence, the Fluorescence intesity (serum of Uterine cervical Ca. patient #7, 1:100 dilution) was 14, the Fluorescence intesity (serum of Uterine cervical Ca. patient #8, 1:100 dilution) was 38 and the Fluorescence intesity (serum of Uterine cervical Ca. patient #9, 1:100 dilution) was 76. For the same sequence, the Fluorescence intesity (serum of Uterine cervical Ca. patient #10, 1:100 dilution) was 16, the Fluorescence intesity (serum of Uterine cervical Ca. patient #11, 1:100 dilution) was 21 and the Fluorescence intesity (serum of Uterine cervical Ca. patient #12, 1:100 dilution) was 41. The Fluorescence intesity (serum of Uterine cervical Ca. patient #13, 1:100 dilution) was 22, the Fluorescence intesity (serum of Uterine cervical Ca. patient #14, 1:100 dilution) was 22 and the Fluorescence intesity (serum of Uterine cervical Ca. patient #15, 1:100 dilution) was 154. It also gave a Fluorescence intesity (serum of Uterine cervical Ca. patient #16, 1:100 dilution) of 225, a Fluorescence intesity (serum of Uterine cervical Ca. patient #17, 1:100 dilution) of 50 and a Fluorescence intesity (serum of Uterine cervical Ca. patient #18, 1:100 dilution) of 45. The Fluorescence intesity (serum of Uterine cervical Ca. patient #19, 1:100 dilution) was 67, the Fluorescence intesity (serum of Uterine cervical Ca. patient #20, 1:100 dilution) was 107 and the Fluorescence intesity (serum of Uterine cervical Ca. patient #21, 1:100 dilution) was 22. It also gave a Fluorescence intesity (serum of Uterine cervical Ca. patient #22, 1:100 dilution) of 19, a Fluorescence intesity (serum of Uterine cervical Ca. patient #23, 1:100 dilution) of 78 and a Fluorescence intesity (serum of Uterine cervical Ca. patient #24, 1:100 dilution) of 2277. For the same sequence, the Fluorescence intesity (serum of Uterine cervical Ca. patient #25, 1:100 dilution) was 19, the Fluorescence intesity (serum of Uterine cervical Ca. patient #26, 1:100 dilution) was 88 and the Fluorescence intesity (serum of Uterine cervical Ca. patient #27, 1:100 dilution) was 33. It also gave a Fluorescence intesity (serum of Uterine cervical Ca. patient #28, 1:100 dilution) of 228, a Fluorescence intesity (serum of Uterine cervical Ca. patient #29, 1:100 dilution) of 15 and a Fluorescence intesity (serum of Uterine cervical Ca. patient #30, 1:100 dilution) of 44. It also gave a Fluorescence intesity (serum of Uterine cervical Ca. patient #31, 1:100 dilution) of 107, a Fluorescence intesity (serum of Uterine cervical Ca. patient #32, 1:100 dilution) of 21 and a Fluorescence intesity (serum of Uterine cervical Ca. patient #33, 1:100 dilution) of 92. It also gave a Fluorescence intesity (serum of Uterine cervical Ca. patient #34, 1:100 dilution) of 17 and a Fluorescence intesity (serum of Uterine cervical Ca. patient #35, 1:100 dilution) of 17.

Reference: US8030443B2, “Squamous cell carcinoma antigen-derived peptide binding to HLA-A24 molecule” (Kurume University, priority 2005, dated 2011)
